According to the supplement of paper PMC5844555:

Columns and labels:
Assay in all cases: 3' UTR reporter interaction score (median-centred robust z-score of log2 firefly/Renilla activity); higher = less repression of the 3' UTR reporter
Settings in all cases: HEK293T; 48 h
FBXW7 = tested on: FBXW7
How it was run: (§1)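 Firefly and Renilla luciferase activities were read 48 h post-transfection in HEK293T cells (10,000/well, 96-well plates). The cells had received 100 ng firefly luc2P reporter bearing the gene's 3' UTR, 20 ng Renilla pRL-TK control and 2.5 pmol miRNA mimic via DharmaFECT Duo. The interaction score, where more negative means interaction, is a per-plate robust z-score (median, median absolute deviation) of the log firefly/Renilla ratio, median-centred per miRNA and averaged over at least two independent screens.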

MYC = tested on: MYC
How it was run: as §1

MYCN = tested on: MYCN
How it was run: as §1

PHF6 = tested on: PHF6
How it was run: as §1

MYT1L = tested on: MYT1L
How it was run: as §1

PHOX2B = tested on: PHOX2B
How it was run: as §1

RB1 = tested on: RB1
How it was run: as §1

BRCA2 = tested on: BRCA2
How it was run: as §1

MYB = tested on: MYB
How it was run: as §1

EZH2 = tested on: EZH2
How it was run: as §1

ZEB2 = tested on: ZEB2
How it was run: as §1

TP53 = tested on: TP53
How it was run: as §1

HRAS = tested on: HRAS
How it was run: as §1

NOTCH1 = tested on: NOTCH1
How it was run: as §1

AAAGUGCUUCCUUUUAGAGGGUU
3' UTR reporter interaction score (FBXW7): 1.34
3' UTR reporter interaction score (MYC): -0.227
3' UTR reporter interaction score (MYCN): -0.338
3' UTR reporter interaction score (PHF6): 0.00103
3' UTR reporter interaction score (MYT1L): -0.468
3' UTR reporter interaction score (PHOX2B): 0.533
3' UTR reporter interaction score (RB1): 1.13
3' UTR reporter interaction score (BRCA2): -0.282
3' UTR reporter interaction score (MYB): -0.903
3' UTR reporter interaction score (EZH2): -1.12
3' UTR reporter interaction score (ZEB2): 0.894
3' UTR reporter interaction score (TP53): -0.295
3' UTR reporter interaction score (HRAS): 0.0494
3' UTR reporter interaction score (NOTCH1): 0.779

AAAGUGCUUCCUUUUUGAGGG
3' UTR reporter interaction score (FBXW7): 0.747
3' UTR reporter interaction score (MYC): 0.0093
3' UTR reporter interaction score (MYCN): -0.0937
3' UTR reporter interaction score (PHF6): -0.0231
3' UTR reporter interaction score (MYT1L): -0.441
3' UTR reporter interaction score (PHOX2B): 1.32
3' UTR reporter interaction score (RB1): 1.02
3' UTR reporter interaction score (BRCA2): 0.142
3' UTR reporter interaction score (MYB): -0.87
3' UTR reporter interaction score (EZH2): -0.296
3' UTR reporter interaction score (ZEB2): 0.44
3' UTR reporter interaction score (TP53): 0.0321
3' UTR reporter interaction score (HRAS): -0.00896
3' UTR reporter interaction score (NOTCH1): 0.985

AACACACCUGGUUAACCUCUUU
3' UTR reporter interaction score (FBXW7): -0.274
3' UTR reporter interaction score (MYC): -0.499
3' UTR reporter interaction score (MYCN): 1.21
3' UTR reporter interaction score (PHF6): -2.01
3' UTR reporter interaction score (MYT1L): 0.591
3' UTR reporter interaction score (PHOX2B): 0.138
3' UTR reporter interaction score (RB1): -0.572
3' UTR reporter interaction score (BRCA2): 0.0379
3' UTR reporter interaction score (MYB): -0.0237
3' UTR reporter interaction score (EZH2): 0.419
3' UTR reporter interaction score (ZEB2): 0.382
3' UTR reporter interaction score (TP53): 0.317
3' UTR reporter interaction score (HRAS): 0.473
3' UTR reporter interaction score (NOTCH1): -1.72

AACAGGUGACUGGUUAGACAA
3' UTR reporter interaction score (FBXW7): 1.13
3' UTR reporter interaction score (MYC): -1.37
3' UTR reporter interaction score (MYCN): -1.32
3' UTR reporter interaction score (PHF6): -0.792
3' UTR reporter interaction score (MYT1L): -0.793
3' UTR reporter interaction score (PHOX2B): 2.14
3' UTR reporter interaction score (RB1): -0.637
3' UTR reporter interaction score (BRCA2): -0.352
3' UTR reporter interaction score (MYB): -0.0471
3' UTR reporter interaction score (EZH2): 0.144
3' UTR reporter interaction score (ZEB2): -0.428
3' UTR reporter interaction score (TP53): -0.34
3' UTR reporter interaction score (HRAS): 0.125
3' UTR reporter interaction score (NOTCH1): 1.15

AACAUUCAACCUGUCGGUGAGU
3' UTR reporter interaction score (FBXW7): 0.747
3' UTR reporter interaction score (MYC): -0.157
3' UTR reporter interaction score (MYCN): -1.2
3' UTR reporter interaction score (PHF6): 0.226
3' UTR reporter interaction score (MYT1L): 1.67
3' UTR reporter interaction score (PHOX2B): 0.334
3' UTR reporter interaction score (RB1): 0.216
3' UTR reporter interaction score (BRCA2): -1.56
3' UTR reporter interaction score (MYB): 1.08
3' UTR reporter interaction score (EZH2): -0.0307
3' UTR reporter interaction score (ZEB2): 1.39
3' UTR reporter interaction score (TP53): -0.761
3' UTR reporter interaction score (HRAS): -0.974
3' UTR reporter interaction score (NOTCH1): 0.774

AACAUUCAACGCUGUCGGUGAGU
3' UTR reporter interaction score (FBXW7): -0.842
3' UTR reporter interaction score (MYC): 0.478
3' UTR reporter interaction score (MYCN): -0.12
3' UTR reporter interaction score (PHF6): -0.891
3' UTR reporter interaction score (MYT1L): -0.0848
3' UTR reporter interaction score (PHOX2B): -0.00434
3' UTR reporter interaction score (RB1): 0.404
3' UTR reporter interaction score (BRCA2): 0.243
3' UTR reporter interaction score (MYB): 0.057
3' UTR reporter interaction score (EZH2): -0.146
3' UTR reporter interaction score (ZEB2): -0.18
3' UTR reporter interaction score (TP53): 0.784
3' UTR reporter interaction score (HRAS): -0.301
3' UTR reporter interaction score (NOTCH1): 0.193

AACAUUCAUUGUUGUCGGUGGGUU
3' UTR reporter interaction score (FBXW7): 0.226
3' UTR reporter interaction score (MYC): -0.122
3' UTR reporter interaction score (MYCN): -0.95
3' UTR reporter interaction score (PHF6): 0.446
3' UTR reporter interaction score (MYT1L): 1.2
3' UTR reporter interaction score (PHOX2B): 0.761
3' UTR reporter interaction score (RB1): 0.277
3' UTR reporter interaction score (BRCA2): -0.763
3' UTR reporter interaction score (MYB): 0.819
3' UTR reporter interaction score (EZH2): -0.453
3' UTR reporter interaction score (ZEB2): 1.49
3' UTR reporter interaction score (TP53): -1.07
3' UTR reporter interaction score (HRAS): -0.818
3' UTR reporter interaction score (NOTCH1): 0.549

AACUGGCCCUCAAAGUCCCGCUUU
3' UTR reporter interaction score (FBXW7): 0.0369
3' UTR reporter interaction score (MYC): 0.891
3' UTR reporter interaction score (MYCN): -2.37
3' UTR reporter interaction score (PHF6): -1.81
3' UTR reporter interaction score (MYT1L): -0.278
3' UTR reporter interaction score (PHOX2B): 0.301
3' UTR reporter interaction score (RB1): 1.12
3' UTR reporter interaction score (BRCA2): 0.335
3' UTR reporter interaction score (MYB): -3.7
3' UTR reporter interaction score (EZH2): 0.347
3' UTR reporter interaction score (ZEB2): 0.222
3' UTR reporter interaction score (HRAS): 1.58
3' UTR reporter interaction score (NOTCH1): -1.04

AACUGGCCUACAAAGUCCCAG
3' UTR reporter interaction score (FBXW7): 0.16
3' UTR reporter interaction score (MYC): 0.942
3' UTR reporter interaction score (MYCN): -2.47
3' UTR reporter interaction score (MYT1L): -0.789
3' UTR reporter interaction score (PHOX2B): -0.335
3' UTR reporter interaction score (RB1): 0.314
3' UTR reporter interaction score (BRCA2): -0.135
3' UTR reporter interaction score (MYB): -3.25
3' UTR reporter interaction score (EZH2): 0.239
3' UTR reporter interaction score (ZEB2): 0.719
3' UTR reporter interaction score (TP53): -0.0425
3' UTR reporter interaction score (HRAS): 1.01
3' UTR reporter interaction score (NOTCH1): -1.05

AAUCGUACAGGGUCAUCCACUU
3' UTR reporter interaction score (FBXW7): 0.407
3' UTR reporter interaction score (MYC): 0.0345
3' UTR reporter interaction score (MYCN): -0.121
3' UTR reporter interaction score (MYT1L): -0.171
3' UTR reporter interaction score (PHOX2B): 1.36
3' UTR reporter interaction score (RB1): -0.619
3' UTR reporter interaction score (BRCA2): -0.12
3' UTR reporter interaction score (MYB): 0.179
3' UTR reporter interaction score (EZH2): 0.723
3' UTR reporter interaction score (ZEB2): 0.283
3' UTR reporter interaction score (TP53): 0.0793
3' UTR reporter interaction score (HRAS): 0.0979
3' UTR reporter interaction score (NOTCH1): 0.0951
